Data from ChEMBL document CHEMBL1201862, “PubChem BioAssay data set” (2004).
Several values for one entry are separate records, joined by “and”; a condition that tells them apart may be missing. Equal values may be shown once.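 In this assay, cells in 96-well plates receive the compound at five concentrations for 48 hours. Endpoints are linearly interpolated between the surrounding concentrations. GI50 is the concentration that inhibits growth by half.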 Activity calls are given as the source filed them. Rule as the data show it: active = GI50 up to about 1.1 µM and inactive = higher.

Tests used:
Assay in all cases: inhibition of tumour cell growth, NCI panel, 48 h
[1] = tested on: NCI-H460
[2] = tested on: A549
[3] = tested on: LOX IMVI
[4] = tested on: HCT-15
[5] = tested on: SR
[6] = tested on: SF-295
[7] = tested on: SK-MEL-2
[8] = tested on: SN12C
[9] = tested on: PC-3
[10] = tested on: UACC-257
[11] = tested on: HCT-116
[12] = tested on: SW-620
[13] = tested on: HOP-92
[14] = tested on: HOP-62
[15] = tested on: SNB-75
[16] = tested on: SF-268
[17] = tested on: IGROV-1
[18] = tested on: UACC-62
[19] = tested on: COLO 205
[20] = tested on: NCI-H522
[21] = tested on: SK-OV-3
[22] = tested on: T47D
[23] = tested on: NCI/ADR-RES
[24] = tested on: EKVX
[25] = tested on: Malme-3M
[26] = tested on: ACHN
[27] = tested on: MDA-N
[28] = tested on: 786-0
[29] = tested on: SK-MEL-5
[30] = tested on: M14
[31] = tested on: OVCAR-8
[32] = tested on: MOLT-4
[33] = tested on: HT-29
[34] = tested on: DU-145
[35] = tested on: MDA-MB-231
[36] = tested on: OVCAR-3
[37] = tested on: Hs-578T
[38] = tested on: HL-60
[39] = tested on: RXF 393
[40] = tested on: NCI-H23
[41] = tested on: SF-539
[42] = tested on: KM12
[43] = tested on: RPMI-8226
[44] = tested on: NCI-H226
[45] = tested on: UO-31
[46] = tested on: MCF7
[47] = tested on: TK-10
[48] = tested on: HCC 2998
[49] = tested on: K562
[50] = tested on: OVCAR-5
[51] = tested on: A498
[52] = tested on: OVCAR-4
[53] = tested on: SK-MEL-28
[54] = tested on: SNB-19
[55] = tested on: CAKI-1
[56] = tested on: MDA-MB-435
[57] = tested on: CCRF-CEM
[58] = tested on: U-251

Question: Which GI50 [1] does the source give for CC(C)(C)[Si](C)(C)OCC1OC(n2cnc3c(N)ncnc32)C(O[Si](C)(C)C(C)(C)C)C1O[Si](C)(C)C(C)(C)C (stereo unspecified) here?
Answer: Its GI50 is 4.11 µM (inactive).

Question: And the GI50 [2]?
Answer: Its GI50 is 9.27 µM (inactive).

Question: What about the GI50 [3] of the same molecule?
Answer: Its GI50 is 6.43 µM (inactive).

Question: What about the GI50 [4] of the same molecule?
Answer: The GI50 was 35 µM.

Question: And the GI50 [5]?
Answer: The GI50 was 10.3 µM (inactive).

Question: What about the GI50 [6] of the same molecule?
Answer: The GI50 was 10.3 µM (inactive).

Question: What about the GI50 [7] of the same molecule?
Answer: Its GI50 is 15.2 µM (inactive).

Question: And the GI50 [8]?
Answer: Its GI50 is 14.9 µM (inactive).

Question: And the GI50 [9]?
Answer: The GI50 was 2.85 µM (inactive).

Question: What about the GI50 [10] of the same molecule?
Answer: The GI50 was 6.17 µM (inactive).

Question: And the GI50 [11]?
Answer: Its GI50 is 6.11 µM (inactive).

Question: What about the GI50 [12] of the same molecule?
Answer: Its GI50 is 10.8 µM (inactive).

Question: And the GI50 [13]?
Answer: The GI50 was 33.7 µM (inactive).

Question: What about the GI50 [14] of the same molecule?
Answer: Its GI50 is 13.9 µM (inactive).

Question: What about the GI50 [15] of the same molecule?
Answer: The GI50 was 13.4 µM (inactive).

Question: What about the GI50 [16] of the same molecule?
Answer: Its GI50 is 15.1 µM (inactive).

Question: What about the GI50 [17] of the same molecule?
Answer: Its GI50 is 8.39 µM (inactive).

Question: And the GI50 [18]?
Answer: Its GI50 is 7.41 µM (inactive).

Question: What about the GI50 [19] of the same molecule?
Answer: The GI50 was 19.5 µM (inactive).

Question: What about the GI50 [20] of the same molecule?
Answer: Its GI50 is 7.76 µM (inactive).

Question: And the GI50 [21]?
Answer: Its GI50 is > 10 µM (inactive).

Question: And the GI50 [22]?
Answer: Its GI50 is 11.9 µM (inactive).

Question: And the GI50 [23]?
Answer: The GI50 was > 100 µM (inactive).

Question: What about the GI50 [24] of the same molecule?
Answer: Its GI50 is 24.9 µM (inactive).

Question: What about the GI50 [25] of the same molecule?
Answer: The GI50 was 44.9 µM (inactive).

Question: And the GI50 [26]?
Answer: Its GI50 is 6.82 µM (inactive).

Question: And the GI50 [27]?
Answer: Its GI50 is 7.14 µM (inactive).

Question: And the GI50 [28]?
Answer: The GI50 was 3.66 µM (inactive).

Question: What about the GI50 [29] of the same molecule?
Answer: The GI50 was 3.65 µM (inactive).

Question: What about the GI50 [30] of the same molecule?
Answer: The GI50 was 11.1 µM (inactive).

Question: What about the GI50 [31] of the same molecule?
Answer: Its GI50 is 14.1 µM (inactive).

Question: And the GI50 [32]?
Answer: The GI50 was 2.04 µM (inactive).

Question: What about the GI50 [33] of the same molecule?
Answer: The GI50 was 9.75 µM (inactive).

Question: And the GI50 [34]?
Answer: The GI50 was 7.93 µM (inactive).

Question: What about the GI50 [35] of the same molecule?
Answer: The GI50 was 10.9 µM (inactive).

Question: And the GI50 [36]?
Answer: The GI50 was 2.87 µM (inactive).

Question: And the GI50 [37]?
Answer: Its GI50 is 15.6 µM (inactive).

Question: CC(=O)OCC1OC(n2c(-c3ccc(C)cc3)cc(-c3ccco3)c(C#N)c2=O)C(OC(C)=O)C(OC(C)=O)C1OC(C)=O (stereo unspecified) was tested. Which GI50 [1] did it give?
Answer: The GI50 was 2.59 µM (inactive).

Question: What about the GI50 [38] of the same molecule?
Answer: Its GI50 is 2.72 µM (inactive).

Question: With COC(=O)C1C(O)CCC2CN3CCc4c([nH]c5ccccc45)C3CC21 (stereo unspecified) as the molecule, how does the GI50 [39] read?
Answer: The GI50 was > 100 µM (inactive).

Question: What about the GI50 [3] of the same molecule?
Answer: Its GI50 is > 100 µM (inactive).

Question: What about the GI50 [4] of the same molecule?
Answer: Its GI50 is > 67.3 µM.

Question: What about the GI50 [6] of the same molecule?
Answer: Its GI50 is > 100 µM (inactive).

Question: And the GI50 [7]?
Answer: The GI50 was > 100 µM (inactive) and > 80.5 µM (inactive).

Question: And the GI50 [8]?
Answer: Its GI50 is > 100 µM (inactive).

Question: What about the GI50 [10] of the same molecule?
Answer: Its GI50 is > 87.1 µM (inactive).

Question: What about the GI50 [11] of the same molecule?
Answer: Its GI50 is > 100 µM (inactive).

Question: And the GI50 [13]?
Answer: Its GI50 is > 51.4 µM (inactive).

Question: What about the GI50 [40] of the same molecule?
Answer: Its GI50 is > 100 µM (inactive).

Question: What about the GI50 [41] of the same molecule?
Answer: Its GI50 is > 100 µM (inactive).

Question: What about the GI50 [15] of the same molecule?
Answer: Its GI50 is 56 µM (inactive).

Question: What about the GI50 [42] of the same molecule?
Answer: Its GI50 is > 95.1 µM (inactive).

Question: What about the GI50 [16] of the same molecule?
Answer: Its GI50 is > 78 µM (inactive).

Question: What about the GI50 [17] of the same molecule?
Answer: Its GI50 is 67.1 µM (inactive).

Question: What about the GI50 [18] of the same molecule?
Answer: The GI50 was > 100 µM (inactive).

Question: And the GI50 [43]?
Answer: Its GI50 is > 100 µM (inactive).

Question: What about the GI50 [19] of the same molecule?
Answer: The GI50 was > 100 µM (inactive) and > 68.7 µM (inactive).

Question: And the GI50 [20]?
Answer: The GI50 was > 100 µM (inactive).

Question: What about the GI50 [44] of the same molecule?
Answer: The GI50 was > 100 µM (inactive).

Question: And the GI50 [22]?
Answer: The GI50 was > 71.4 µM (inactive).

Question: And the GI50 [45]?
Answer: Its GI50 is 54.2 µM (inactive).

Question: And the GI50 [23]?
Answer: Its GI50 is > 100 µM (inactive).

Question: And the GI50 [46]?
Answer: The GI50 was > 100 µM (inactive) and > 72.9 µM (inactive).

Question: What about the GI50 [47] of the same molecule?
Answer: The GI50 was > 100 µM (inactive).

Question: What about the GI50 [24] of the same molecule?
Answer: The GI50 was > 91 µM (inactive).

Question: What about the GI50 [48] of the same molecule?
Answer: The GI50 was > 100 µM (inactive).

Question: And the GI50 [25]?
Answer: Its GI50 is > 68.1 µM (inactive).

Question: What about the GI50 [49] of the same molecule?
Answer: The GI50 was > 100 µM (inactive).

Question: What about the GI50 [27] of the same molecule?
Answer: Its GI50 is > 100 µM (inactive) and > 92 µM (inactive).

Question: And the GI50 [29]?
Answer: Its GI50 is > 100 µM (inactive).

Question: And the GI50 [30]?
Answer: Its GI50 is > 100 µM (inactive).

Question: What about the GI50 [31] of the same molecule?
Answer: Its GI50 is > 100 µM (inactive).

Question: What about the GI50 [50] of the same molecule?
Answer: Its GI50 is > 66.2 µM (inactive).

Question: And the GI50 [33]?
Answer: The GI50 was > 100 µM (inactive) and 72.8 µM (inactive).

Question: And the GI50 [34]?
Answer: The GI50 was > 100 µM (inactive) and > 87.7 µM (inactive).

Question: And the GI50 [35]?
Answer: The GI50 was > 100 µM (inactive).

Question: And the GI50 [37]?
Answer: Its GI50 is > 100 µM (inactive).

Question: What about the GI50 [51] of the same molecule?
Answer: Its GI50 is > 100 µM (inactive).

Question: Which results are given for O=C1CSc2nc3ccccc3n2/C=N\N1?
Answer: GI50 [1]: > 100 µM (inactive); GI50 [2]: > 100 µM (inactive); GI50 [39]: > 100 µM (inactive); GI50 [3]: > 100 µM (inactive); GI50 [4]: > 100 µM; GI50 [52]: > 100 µM (inactive); GI50 [5]: > 100 µM (inactive); GI50 [6]: > 100 µM (inactive); GI50 [7]: > 100 µM (inactive); GI50 [8]: > 100 µM (inactive); GI50 [9]: > 100 µM (inactive); GI50 [10]: > 100 µM (inactive); GI50 [11]: > 100 µM (inactive); GI50 [12]: > 100 µM (inactive); GI50 [13]: > 100 µM (inactive); GI50 [40]: > 100 µM (inactive); GI50 [42]: > 100 µM (inactive); GI50 [16]: > 100 µM (inactive); GI50 [18]: > 100 µM (inactive); GI50 [43]: > 100 µM (inactive); GI50 [19]: > 100 µM (inactive); GI50 [53]: > 100 µM (inactive); GI50 [20]: > 100 µM (inactive); GI50 [44]: > 100 µM (inactive); GI50 [21]: > 100 µM (inactive); GI50 [45]: > 100 µM (inactive); GI50 [23]: > 100 µM (inactive); GI50 [54]: > 100 µM (inactive); GI50 [55]: > 100 µM (inactive); GI50 [46]: > 100 µM (inactive); GI50 [47]: > 100 µM (inactive); GI50 [48]: > 100 µM (inactive); GI50 [26]: > 100 µM (inactive); GI50 [49]: > 100 µM (inactive); GI50 [27]: > 100 µM (inactive); GI50 [28]: > 100 µM (inactive); GI50 [29]: > 100 µM (inactive); GI50 [30]: > 100 µM (inactive); GI50 [31]: > 100 µM (inactive); GI50 [50]: > 100 µM (inactive); GI50 [32]: > 100 µM (inactive); GI50 [56]: > 100 µM (inactive); GI50 [33]: > 100 µM (inactive); GI50 [34]: > 100 µM (inactive); GI50 [57]: > 100 µM (inactive); GI50 [35]: > 100 µM (inactive); GI50 [58]: > 100 µM (inactive); GI50 [51]: > 100 µM (inactive)
